Consider 24 molecules from patent publication US20240092784A1, “CONDENSED HETEROCYCLIC COMPOUND” (NISSAN CHEMICAL CORPORATION, priority 2020, published 2024).

This assay has as its target human SPR (Homo sapiens (Human), UniProt P35270). Briefly: Evaluation Example 2: Measurement of human SPR inhibitory activity (seven concentrations, sepiapterin absorbance at 420 nm). It is filed as biochemical. The method in brief: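 His-tagged full-length human SPR (1-261) was expressed in E. coli and the tag removed. Enzyme at 150 ng/mL in 100 mM Tris-HCl pH 7.5/0.01% BSA was mixed with compound (0.14–100 nM, seven points), 120 μM sepiapterin and 160 μM NADPH, both as added-solution concentrations. After 240 min at room temperature, remaining sepiapterin was read at 420 nm to give percent inhibition.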

Setting [1] is: Evaluation Example 2, seven concentrations 0.14 nM to 100 nM, 240 minutes at room temperature, read-out: IC50.
Setting [2] is: sepiapterin absorbance, Table 41, read-out: concentration at 50% inhibition of human SPR (IC50).

Read-outs that look alike come from different tables or passages of the source.

human SPR, sequence (P35270 whole entry): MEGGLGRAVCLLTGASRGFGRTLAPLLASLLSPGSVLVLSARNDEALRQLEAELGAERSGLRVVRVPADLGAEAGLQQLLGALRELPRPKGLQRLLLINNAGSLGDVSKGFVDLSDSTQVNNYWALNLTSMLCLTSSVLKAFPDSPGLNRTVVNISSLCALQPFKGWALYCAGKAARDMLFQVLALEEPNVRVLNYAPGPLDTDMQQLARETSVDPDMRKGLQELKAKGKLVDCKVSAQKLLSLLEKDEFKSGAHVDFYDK

`CC(C)Cn1c(=O)c(C(=O)NC2CC2)c(O)n2ncc(/C=C/C(=O)N3CC[C@H](C(C)(C)O)C3)c12` [compound 598, (S,E)-N-Cyclopropyl-7-hydroxy-3-(3-(3-(2-hydroxypropan-2-yl)pyrrolidin-1-yl)-3-oxoprop-1-en-1-yl)-4-isobutyl-5-oxo-4,5-dihydropyrazolo[1,5-a]pyrimidine-6-carboxamide]: the IC50 under setting [1] stood at 1.2 nM.
The same measure, in the same setting: the value for `Cc1nn2c(O)c(C(=O)NC3CC3)c(=O)n(CC(C)(C)C)c2c1/C=C/C(=O)N1CCOCC1` [compound 582, (E)-N-Cyclopropyl-7-hydroxy-2-methyl-3-(3-morpholino-3-oxoprop-1-en-1-yl)-4-neopentyl-5-oxo-4,5-dihydropyrazolo[1,5-a]pyrimidine-6-carboxamide] was 0.63 nM; that for `CC(C)Cn1c(=O)c(C(=O)NC2CC2)c(O)n2nc3[nH]ccc3c12` [Synthesis Example 399, N-Cyclopropyl-7-hydroxy-4-isobutyl-5-oxo-4,5-dihydro-1H-pyrrolo[2′,3′:3,4]pyrazolo[1,5-a]pyrimidine-6-carboxamide] was 1.56 nM.
The same measure, in the same setting: the value for `Cc1nn2c(O)c(C(=O)NC3CC3)c(=O)n(CC(C)C)c2c1/C=C/C(=O)N1CCC[C@H]1C(C)C` [Synthesis Example 630, (S,E)-N-Cyclopropyl-7-hydroxy-4-isobutyl-3-(3-(2-isopropylpyrrolidin-1-yl)-3-oxoprop-1-en-1-yl)-2-methyl-5-oxo-4,5-dihydropyrazolo[1,5-a]pyrimidine-6-carboxamide] was 1.24 nM.
For the molecule `CC(=O)N1CCC2(CCCN2C(=O)/C=C/c2cnn3c(O)c(C(=O)NC4CC4)c(=O)n(CC(C)C)c23)CC1` [Synthesis Example 737, (E)-3-(3-(8-Acetyl-1,8-diazaspiro[4.5]decan-1-yl)-3-oxoprop-1-en-1-yl)-N-cyclopropyl-7-hydroxy-4-isobutyl-5-oxo-4,5-dihydropyrazolo[1,5-a]pyrimidine-6-carboxamide], under setting [2], the IC50 was 1.9 nM.
For the molecule `Cc1nn2c(O)c(C(=O)NC3CC3)c(=O)n(CC(C)C)c2c1/C=C/C(=O)N1CC[C@H](F)C1` [compound 566, (S,E)-N-Cyclopropyl-3-(3-(3-fluoropyrrolidin-1-yl)-3-oxoprop-1-en-1-yl)-7-hydroxy-4-isobutyl-2-methyl-5-oxo-4,5-dihydropyrazolo[1,5-a]pyrimidine-6-carboxamide], the IC50 under setting [1] was found to be 0.94 nM.
Same read-out and setting: in the case of `CC(C)(C)Cn1c(=O)c(C(=O)NC2CC2)c(O)n2nc(Nc3ccnc(C#N)n3)cc12` [Synthesis Example 325, 2-((2-Cyanopyrimidin-4-yl)amino)-N-cyclopropyl-7-hydroxy-4-neopentyl-5-oxo-4,5-dihydropyrazolo[1,5-a]pyrimidine-6-carboxamide] it was 1.45 nM.
For `Cc1nn2c(O)c(C(=O)NC3CC3)c(=O)n(CC(C)C)c2c1/C=C/C(=O)N1C[C@H]2C[C@@H]1CO2` [Synthesis Example 754, 3-((E)-3-((1R,4R)-2-Oxa-5-azabicyclo[2.2.1]heptan-5-yl)-3-oxoprop-1-en-1-yl)-N-cyclopropyl-7-hydroxy-4-isobutyl-2-methyl-5-oxo-4,5-dihydropyrazolo[1,5-a]pyrimidine-6-carboxamide], under setting [2], the IC50 was 0.83 nM.
On to `CC(C)Cn1c(=O)c(C(=O)NC2CC2)c(O)n2ncc(/C=C/C(=O)N3CCC4(CCOCC4)C3)c12` [compound 559, (E)-N-Cyclopropyl-7-hydroxy-4-isobutyl-5-oxo-3-(3-oxo-3-(8-oxa-2-azaspiro[4.5]decan-2-yl)prop-1-en-1-yl)-4,5-dihydropyrazolo[1,5-a]pyrimidine-6-carboxamide], for which the IC50 under setting [1] is 1 nM.
Same read-out and setting: in the case of `CC(C)(C)Cn1c(=O)c(C(=O)NC2CC2)c(O)n2nc(N3CC[C@H](N)C3)cc12` [Synthesis Example 342, (S)-2-(3-Aminopyrrolidin-1-yl)-N-cyclopropyl-7-hydroxy-4-neopentyl-5-oxo-4,5-dihydropyrazolo[1,5-a]pyrimidine-6-carboxamide] it was 2.31 nM.
For `CC(C)Cn1c(=O)c(C(=O)NC2CC2)c(O)n2ncc(/C=C/C(=O)N3CCOc4ncccc43)c12` [Synthesis Example 729, (E)-N-Cyclopropyl-3-(3-(2,3-dihydro-1H-pyrido[2,3-b][1,4]oxazin-1-yl)-3-oxoprop-1-en-1-yl)-7-hydroxy-4-isobutyl-5-oxo-4,5-dihydropyrazolo[1,5-a]pyrimidine-6-carboxamide], under setting [2], the IC50 came to 1.05 nM.
On to `CC(C)Cn1c(=O)c(C(=O)NC2CC2)c(O)n2ncc(/C=C/C(=O)N3CCc4cncnc43)c12` [Synthesis Example 724, (E)-N-Cyclopropyl-3-(3-(5,6-dihydro-7H-pyrrolo[2,3-d]pyrimidin-7-yl)-3-oxoprop-1-en-1-yl)-7-hydroxy-4-isobutyl-5-oxo-4,5-dihydropyrazolo[1,5-a]pyrimidine-6-carboxamide], for which the IC50 under setting [2] turned out to be 1.03 nM.
`CNc1nn2c(O)c(C(=O)NC3CC3)c(=O)n(CC(C)C)c2c1/C=C/C(=O)N1CCC(F)(F)C1` [Synthesis Example 428, (E)-N-Cyclopropyl-3-(3-(3,3-difluoropyrrolidin-1-yl)-3-oxoprop-1-en-1-yl)-7-hydroxy-4-isobutyl-2-(methylamino)-5-oxo-4,5-dihydropyrazolo[1,5-a]pyrimidine-6-carboxamide]: under setting [1], the IC50 worked out at 0.84 nM.
Same read-out and setting: in the case of `COC[C@H]1COCCN1C(=O)/C=C/c1cnn2c(O)c(C(=O)NC3CC3)c(=O)n(CC3(C)CC3)c12` [Synthesis Example 371, (S,E)-N-Cyclopropyl-7-hydroxy-3-(3-(3-(methoxymethyl)morpholino)-3-oxoprop-1-en-1-yl)-4-((1-methylcyclopropyl)methyl)-5-oxo-4,5-dihydropyrazolo[1,5-a]pyrimidine-6-carboxamide] it was 0.61 nM; in that of `Cc1nn2c(O)c(C(=O)NC3CC3)c(=O)n(CC(C)C)c2c1/C=C/C(=O)N1CCOC[C@H]1C` [compound 570, (R,E)-N-Cyclopropyl-7-hydroxy-4-isobutyl-2-methyl-3-(3-(3-methylmorpholino)-3-oxoprop-1-en-1-yl)-5-oxo-4,5-dihydropyrazolo[1,5-a]pyrimidine-6-carboxamide], 0.75 nM.
On the same count and under the same terms, the value for `CC(C)Cn1c(=O)c(C(=O)NC2CC2)c(O)n2ncc(/C=C/C(=O)N3CCC[C@H]3C(N)=O)c12` [compound 486, (S,E)-3-(3-(2-Carbamoylpyrrolidin-1-yl)-3-oxoprop-1-en-1-yl)-N-cyclopropyl-7-hydroxy-4-isobutyl-5-oxo-4,5-dihydropyrazolo[1,5-a]pyrimidine-6-carboxamide] was 0.92 nM.
The same measure, in the same setting: the value for `CO[C@@H]1CCN(C(=O)/C=C/c2c(C)nn3c(O)c(C(=O)NC4CC4)c(=O)n(CC(C)C)c23)C1` [compound 578, (R,E)-N-Cyclopropyl-7-hydroxy-4-isobutyl-3-(3-(3-methoxypyrrolidin-1-yl)-3-oxoprop-1-en-1-yl)-2-methyl-5-oxo-4,5-dihydropyrazolo[1,5-a]pyrimidine-6-carboxamide] was 0.9 nM.
With `CC(C)(C)Cn1c(=O)c(C(=O)NC2CC2)c(O)n2nc(-c3cn[nH]c3)cc12` [Synthesis Example 286, N-Cyclopropyl-7-hydroxy-4-neopentyl-5-oxo-2-(1H-pyrazol-4-yl)-4,5-dihydropyrazolo[1,5-a]pyrimidine-6-carboxamide], under setting [1], the IC50 worked out at 1.54 nM.
Still for that read-out and setting: in the case of `Cc1nn2c(O)c(C(=O)NC3CC3)c(=O)n(CC(C)C)c2c1/C=C/C(=O)N1[C@@H](C)COC[C@@H]1C` [compound 567, N-Cyclopropyl-3-((E)-3-((3S,5S)-3,5-dimethylmorpholino)-3-oxoprop-1-en-1-yl)-7-hydroxy-4-isobutyl-2-methyl-5-oxo-4,5-dihydropyrazolo[1,5-a]pyrimidine-6-carboxamide] it was 0.69 nM; in that of `Cc1nn2c(O)c(C(=O)NC3CC3)c(=O)n(CC(C)C)c2c1/C=C/C(=O)N1[C@H](C)COC[C@H]1C` [compound 576, N-Cyclopropyl-3-((E)-3-((3R,5R)-3,5-dimethylmorpholino)-3-oxoprop-1-en-1-yl)-7-hydroxy-4-isobutyl-2-methyl-5-oxo-4,5-dihydropyrazolo[1,5-a]pyrimidine-6-carboxamide], 0.86 nM.
For the molecule `CC(C)Cn1c(=O)c(C(=O)NC2CC2)c(O)n2ncc(/C=C/C(=O)N3C[C@@H](C)OC[C@@H]3C)c12` [Synthesis Example 741, N-Cyclopropyl-3-((E)-3-((2R,5S)-2,5-dimethylmorpholino)-3-oxoprop-1-en-1-yl)-7-hydroxy-4-isobutyl-5-oxo-4,5-dihydropyrazolo[1,5-a]pyrimidine-6-carboxamide], under setting [2], the IC50 was 0.98 nM.
For the molecule `CC(C)(C)Cn1c(=O)c(C(=O)NC2CC2)c(O)n2nc(-c3[nH]ncc3C(=O)N3CCOCC3)cc12` [Synthesis Example 311, N-Cyclopropyl-7-hydroxy-2-(4-(morpholine-4-carbonyl)-1H-pyrazol-5-yl)-4-neopentyl-5-oxo-4,5-dihydropyrazolo[1,5-a]pyrimidine-6-carboxamide], the IC50 under setting [1] worked out at 1.21 nM.
Still for that read-out and setting: the value for `CC(C)Cn1c(=O)c(C(=O)NC2CC2)c(O)n2ncc(/C=C/C(=O)N3CCC[C@@H]3C(N)=O)c12` [compound 487, (R,E)-3-(3-(2-Carbamoylpyrrolidin-1-yl)-3-oxoprop-1-en-1-yl)-N-cyclopropyl-7-hydroxy-4-isobutyl-5-oxo-4,5-dihydropyrazolo[1,5-a]pyrimidine-6-carboxamide] was 0.97 nM; that for `CC(C)Cn1c(=O)c(C(=O)NC2CC2)c(O)n2nc(N)c(/C=C/C3CCCCC3)c12` [Synthesis Example 441, (E)-2-Amino-3-(2-cyclohexylvinyl)-N-cyclopropyl-7-hydroxy-4-isobutyl-5-oxo-4,5-dihydropyrazolo[1,5-a]pyrimidine-6-carboxamide] was 4.74 nM.
